The target of the test is T1, D1 dopamine receptor (Macaca fascicularis, UniProt Q5I6B7).
T1 sequence (Q5I6B7 whole entry): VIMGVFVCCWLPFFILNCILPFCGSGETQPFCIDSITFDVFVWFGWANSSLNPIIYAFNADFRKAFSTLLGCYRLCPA

Our source for the Ki values is BindingDB's records for doi:10.1016/0014-2999(93)90076-T (University of North Carolina, 1993).

In the case of `CN1CCc2cc(Cl)c(O)cc2[C@@H](c2ccccc2)C1` [SCH 23390,R(+)], the Ki (commonly the dissociation constant of the complex between target and ligand, obtained from inhibition or displacement) was 1.3 nM.
With `Oc1cc2c(cc1O)[C@@H](c1ccccc1)CNCC2` the figure was 106 nM; with `Oc1cc2c(cc1O)[C@@H]1c3ccccc3CN[C@@H]1CC2` [(+/-)-trans-10,11-dihydroxy-5,6,6a,7,8,12b-hexahydrobenzo[a]phenanthridine], 20.2 nM.
